One series deals with enterovirus strain 6. Nature of the series: microbe, parasite or virus in culture. The class given is cell-based. The settings on record: inhibition of viral CPE; for inhibition at 0.01 µM: 10 nM, read-out: Inh. at 10 nM, EV6; for inhibition at 0.1 µM: 100 nM, read-out: Inh. at 100 nM, EV6.
The subject of another series is enterovirus strain 30. The experiment in a line: Antiviral CPE inhibition assay in mammalian cell culture, EV30. The class given is cell-based. The settings on record: inhibition of viral CPE; for inhibition at 0.01 µM: 10 nM, read-out: Inh. at 10 nM, EV30; for inhibition at 0.1 µM: 100 nM, read-out: Inh. at 100 nM, EV30.
In the next series the test system is enterovirus D68. Nature of the series: Antiviral CPE inhibition assay in mammalian cell culture, EV-D68. The class given is cell-based. The settings on record: Enterovirus D, EVD68, inhibition of viral CPE; for inhibition at 0.01 µM: 10 nM, read-out: Inh. at 10 nM, EV-D68; for inhibition at 0.1 µM: 100 nM, read-out: Inh. at 100 nM, EV-D68.
The next series deals with enterovirus strain 71. Nature of the series: Antiviral CPE inhibition assay in mammalian cell culture, EV71. In kind it is cell-based. The settings on record: inhibition of viral CPE; for inhibition at 0.01 µM: 10 nM, read-out: Inh. at 10 nM, EV71; for inhibition at 0.1 µM: 100 nM, read-out: Inh. at 100 nM, EV71.
Series [1] relates to coxsackie B virus strain 1. Nature of the series: Antiviral CPE inhibition assay in mammalian cell culture, Cox B1. The settings on record: for inhibition at 0.01 µM: read-out: Inh. at 10 nM, Cox B1; for inhibition at 0.1 µM: read-out: Inh. at 100 nM, Cox B1. In kind it is cell-based.
The subject of series [2] is coxsackie B virus strain 2. Nature of the series: Antiviral CPE inhibition assay in mammalian cell culture, Cox B2. The class given is cell-based. The settings on record: for inhibition at 0.01 µM: read-out: Inh. at 10 nM, Cox B2; for inhibition at 0.1 µM: read-out: Inh. at 100 nM, Cox B2.
In series [3] the test system is coxsackie B virus strain 3. Nature of the series: Antiviral CPE inhibition assay in mammalian cell culture, Cox B3. In kind it is cell-based. The settings on record: for inhibition at 0.01 µM: read-out: Inh. at 10 nM, Cox B3; for inhibition at 0.1 µM: read-out: Inh. at 100 nM, Cox B3.
Series [4] concerns coxsackie B virus strain 5. Nature of the series: Antiviral CPE inhibition assay in mammalian cell culture, Cox B5. In kind it is cell-based. The settings on record: for inhibition at 0.01 µM: read-out: Inh. at 10 nM, Cox B5; for inhibition at 0.1 µM: read-out: Inh. at 100 nM, Cox B5.
For another series, the system named is polio virus strain 1. The experiment in a line: organism not typed. In kind it is cell-based. The settings on record: for inhibition at 0.01 µM: read-out: Inh. at 10 nM, Polio 1; for inhibition at 0.1 µM: read-out: Inh. at 100 nM, Polio 1.
A further series addresses T1, CYP3A4 (Homo sapiens, UniProt P08684).
T1 construct: from tissue; host or cells: human liver microsomes
Nature of the series: In vitro CYP 3A4 enzyme inhibition in human liver microsomes by probe substrate method. The class given is in vitro ADME. The settings on record: human liver microsomes 0.5 mg/mL; probe substrate Midazolam 5 μM. The protocol: In Vitro CYP 3A4 Enzyme Inhibition Study in Human Liver Microsomes by Probe Substrate Method
In vitro CYP3A4 enzyme inhibition assay was performed using Human liver microsomes at 0.5 mg/mL concentration. Ketoconazole was used as reference inhibitor and Midazolam was used as selective probe substrate for CYP 3A4 enzyme. Serial dilution of test/control items was prepared in potassium phosphate buffer (50 mM, pH 7.40) to obtain eight concentrations each in a 1:4 dilution pattern. The percentage of acetonitrile/DMSO was maintained at 2.5%/0.25% in 2.5× serially diluted control/test item solutions respectively. The final percentage of acetonitrile/DMSO was 1%/0.1% respectively. Intermediate solutions such as 10× working solution (5 mg/mL) of Human liver microsomal solution, 10× concentration of reference probe substrates in buffer, 5× concentrations of Cofactors (5.0 mM NADP+, 25.0 mM G-6-P, 3.0 IU/mL G-6-PDH and 10.0 mM MgCl2) were prepared in potassium phosphate buffer. The final concentration of liver microsomes in the reaction mixture was 0.5 mg/mL, cofactors was 1.0 mM NADP+, 5.0 mM G-6-P, 0.6 IU/mL G-6-PDH and 2.0 mM MgCl2. Midazolam was tested at 5 μM test concentration. 40 μL of 2.5× serially diluted test/control item solutions and 10 μL of […] liver microsomal solution were added to 96 well plate and incubated for 10 min at 37° C. with shaking condition (400 rpm) using Thermomixer. After pre incubation, 20 μL of potassium phosphate buffer, 10 μL of respective probe substrate working solution and 20 μL of cofactor mix was added.

Series [5] is described as follows: Metabolic stability in human liver microsomes. In kind it is in vitro ADME. The settings on record: 5 μM test item, 0.25 mg/mL microsomal protein. How it is done:
(§1) Metabolic stability assay was carried out using Human/Rat liver microsomes. […] Test item/Control items were incubated with Human/Rat liver microsomes with cofactors and without cofactors. The reaction mixture (100 μL) was removed at specified time period and the reaction was stopped by addition of stop solution. The samples were extracted in presence of internal standard and were analyzed using LC-MS/MS. The percent of the test/Control item remaining after specified incubation period was calculated with respect to the peak area ratio at time 0 min. […] The reaction mixture was incubated further at 37° C. for specified incubation time points (With Cofactors: 0, 15, 30, 60 and 120 min; Without Cofactors: 0 and 120 min). 100 μL incubation samples of test items and Control items at specified incubation time points were transferred to respective tubes for sample extraction. Test and Control item specimens were extracted by Protein precipitation method. A 100 μL incubation sample at each time point was added to tubes containing 200 μL of ice-cold acetonitrile and 50 μL Haloperidol solution (0.5 μg/mL). Then the tubes were vortex mixed thoroughly and centrifuged at 10000 rpm for 10 minutes at 4° C. A clear supernatant of 200 μL of samples were submitted for LC-MS/MS analysis.
Background: Liver microsomes are a subcellular fraction often used to study metabolism.

The nature of series [6]: Metabolic stability in rat liver microsomes. In kind it is in vitro ADME. The settings on record: 5 μM test item, 0.25 mg/mL microsomal protein. The protocol:
as §1

Series [7] is described as follows: Human plasma protein binding (Rapid Equilibrium Dialysis). The class given is in vitro ADME. The settings on record: pH 7.4, RED device, 37° C. How it is done:
(§2) Plasma protein binding study was performed using a Rapid Equilibrium Dialysis (RED) device containing dialysis membrane with a molecular weight cut-off of 8,000 Daltons. Each dialysis insert contained two chambers. The red chamber was for the plasma while the white chamber was for the buffer. Test items and Control items (Warfarin and Propranolol) were prepared at a required test concentration of 10 μM in Human/Rat plasma (pH adjusted to 7.40) using 10 mM DMSO stocks (final DMSO concentration was 0.1%). 300 μL of plasma sample was added into the sample chamber. 500 μL of buffer was added into the buffer chamber. After sealing the RED device with an adhesive film, incubation was done at 37° C. with shaking at 300 rpm for 4 h. Following incubation, an aliquot of 50 μL was removed from each well (plasma and buffer side) and diluted with equal volume of opposite matrix to nullify the matrix effect and subjected for sample extraction.
(§3) All samples were extracted by Protein Precipitation method by adding 200 μL of ice cold Acetonitrile and 50 μL of internal standard (Haloperidol at 0.1 μg/mL) solution. The tubes were vortex mixed thoroughly and centrifuged at 10000 rpm, 4° C. for 10 minutes. A clear supernatant of 200 μL of samples were submitted for LC-MS/MS analysis.
(Equilibrium dialysis compares concentrations on both sides of a semipermeable membrane.)

The nature of series [8]: Rat plasma protein binding (Rapid Equilibrium Dialysis). The settings on record: pH 7.4, RED device, 37° C. The class given is in vitro ADME. The protocol: as §2, §3

Structures are written as SMILES. Where only a bound is given, the exact number is not on record here.

T1 sequence (P08684 whole entry): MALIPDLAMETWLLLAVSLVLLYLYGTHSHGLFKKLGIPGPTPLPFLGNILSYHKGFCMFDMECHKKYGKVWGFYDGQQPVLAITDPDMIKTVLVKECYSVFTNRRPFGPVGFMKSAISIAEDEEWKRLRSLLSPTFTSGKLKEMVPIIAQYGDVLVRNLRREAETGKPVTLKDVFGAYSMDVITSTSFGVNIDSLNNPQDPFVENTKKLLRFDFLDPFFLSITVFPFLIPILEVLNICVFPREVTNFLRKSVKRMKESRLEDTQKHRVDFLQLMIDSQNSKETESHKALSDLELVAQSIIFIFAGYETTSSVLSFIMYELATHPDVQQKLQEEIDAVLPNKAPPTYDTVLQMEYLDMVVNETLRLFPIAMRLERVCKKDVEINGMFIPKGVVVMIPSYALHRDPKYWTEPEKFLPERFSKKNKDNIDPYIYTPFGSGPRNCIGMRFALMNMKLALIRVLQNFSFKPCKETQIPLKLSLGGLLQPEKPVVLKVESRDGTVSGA

With `COc1ccc(-c2c(C)nc3c(NCc4ccnc(C)c4)cc(C)nn23)cc1OC` [Ex. 1, 3-(3,4-dimethoxyphenyl)-2,6-dimethyl-N-((2-methylpyridin-4-yl)methyl)imidazo[1,2-b]pyridazin-8-amine], the inhibition at 0.01 µM with enterovirus strain 6 amounted to 100%; in the series with enterovirus strain 30, 100%; in the series with enterovirus D68, 85%; in the series with enterovirus strain 71, 68%; in [1], 93%; in series [2], 100%. Further, the inhibition at 0.01 µM in [3] came to 100%; in series [4], 80%; in the series on polio virus strain 1, 100%. Moreover, the inhibition at 0.1 µM in the series with enterovirus strain 6 came to 100%; with enterovirus strain 30 it was 100%; in the series on enterovirus D68 it was 83%; in the series on enterovirus strain 71, 77%; in series [1], 100%; in series [2], 100%. Moreover, the inhibition at 0.1 µM (in series [3]; in series [4]; with polio virus strain 1) was 100% throughout. For the same molecule, the midpoint of inhibition against CYP3A4, the IC50, lay at 23.1 µM.
Take `Cc1cc(NCc2ccnc(F)c2)n2nc(C)c(-c3ccc4c(c3)c(C)nn4C)c2n1` [Ex. 3, 3-(1,3-dimethyl-1H-indazol-5-yl)-2,5-dimethyl-N-[(2-fluoropyridin-4-yl)methyl]pyrazolo[1,5-a]pyrimidin-7-amine]: the inhibition at 0.01 µM was 88% with enterovirus strain 6; 100% in the series on enterovirus strain 30; 76% with enterovirus D68; 82% with enterovirus strain 71; 68% in [1]; 100% in [2]. For the same molecule, the values for the inhibition at 0.01 µM (in series [3]; in series [4]; with polio virus strain 1) were 100%, 48% and 100%, respectively. The inhibition at 0.1 µM in the series on enterovirus strain 6 was 100%; in the series with enterovirus strain 30 it was 100%; in the series with enterovirus D68, 70%; with enterovirus strain 71, 81%; in series [1] it was 100%; in series [2], 100%. In addition, the inhibition at 0.1 µM (in series [3]; in series [4]; with polio virus strain 1) was 100% in each case. Also, at CYP3A4, the IC50 (as a rule, the concentration at which inhibition is half-maximal) is > 25 µM. In addition, the “% remaining after incubation for 60 min, Human microsomes” value in series [5] is 96.1%. Further, the “% remaining after incubation for 60 min, Rat microsomes” value in series [6] is reported as 99.4%. Further, the fraction unbound (in general, free concentration divided by total concentration) at 4 h, 10 μM in series [7] was 0.022; in series [8] it was 0.059.
For `COc1ccc(-c2c(C)nn3c(NCc4ccncc4)cc(C)nc23)cc1OC` [X, 3-(3,4-dimethoxyphenyl)-2,5-dimethyl-N-(pyridin-4-ylmethyl)pyrazolo[1,5-a]pyrimidin-7-amine, reference compound], the inhibition at 0.01 µM turned out to be 100% in the series with enterovirus strain 6; 100% in the series with enterovirus strain 30; 86% in the series on enterovirus D68; 82% with enterovirus strain 71; 100% in series [1]; 100% in [2]. Besides, the inhibition at 0.01 µM (in series [3]; in series [4]; in the series with polio virus strain 1) was 100% throughout. Besides, the inhibition at 0.1 µM in the series with enterovirus strain 6 was 100%; with enterovirus strain 30, 100%; with enterovirus D68, 86%; in the series with enterovirus strain 71, 82%; in series [1], 100%; in series [2] it was 100%. For the same molecule, the inhibition at 0.1 µM (in series [3]; in series [4]; in the series on polio virus strain 1) was 100% throughout. On CYP3A4, this molecule returned an IC50 of 0.97 µM.
With `COc1ccc(-c2c(C)nc3c(NCc4ccnc(F)c4)cc(C)nn23)cc1OC` [compound 2, 3-(3,4-dimethoxyphenyl)-N-((2-fluoropyridin-4-yl)methyl)-2,6-dimethylimidazo[1,2-b]pyridazin-8-amine], the inhibition at 0.01 µM with enterovirus strain 6 came out at 100%; in the series with enterovirus strain 30 it was 100%; in the series with enterovirus D68 it was 73%; in the series on enterovirus strain 71, 76%; in series [1], 100%; in series [2], 100%. Besides, the inhibition at 0.01 µM in series [3] was found to be 100%; in series [4], 84%; in the series on polio virus strain 1 it was 100%. The inhibition at 0.1 µM in the series with enterovirus strain 6 was determined as 100%; in the series on enterovirus strain 30, 100%; in the series with enterovirus D68, 68%; in the series on enterovirus strain 71, 75%; in [1], 100%; in series [2], 100%. Moreover, the inhibition at 0.1 µM (in series [3]; in series [4]; in the series with polio virus strain 1) was 100% throughout. The IC50 against CYP3A4 is > 25 µM.

Values taken from US12319696B2, “2,6-dimethyl-n-((pyridin-4-yl)methyl)imidazo[1,2-b]pyridazin-8-amine and 2,5-dimethyl-n-[(pyridin-4-yl)methyl]pyrazolo[1,5-a]pyrimidin-7-amine derivatives for treating viral infections” (CUROVIR AB, priority 2018, dated 2025).
